Laboratory results published in patent US20260356819A1, “OXOISOINDOLINYL-SUBSTITUTED […] DERIVATIVE AND USE THEREOF” (GLUETACS THERAPEUTICS (SHANGHAI) CO., LTD., priority 2023, published 2026).

How the values were obtained:
Type in all cases: cell-based
Conditions in all cases: compounds at 50 nM and 500 nM
CK1α = molecular target: T1, CK1α (Homo sapiens, UniProt P48729+Q96SW2); assay: Western blot degradation of CK1α in hPBMCs (24 h)
T1 construct: The supernatant was aspirated as the extracted total cell protein; endogenous in cells; host or cells: human peripheral blood mononuclear cells (hPBMCs)
Procedure, shortened: (§1)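 Thawed human PBMCs, 1×10^6 cells/mL; cpd 50 nM or 500 nM, 24 h; RIPA lysis, BCA, SDS-PAGE, NC transfer, immunoblot. Readout: grayscale/internal control → % remaining; degradation = 1 − remaining.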

IKZF2 = molecular target: T2, IKZF2 (Homo sapiens, UniProt Q96SW2+Q9UKS7); assay: Western blot degradation of IKZF2 in hPBMCs (24 h)
T2 construct: The supernatant was aspirated as the extracted total cell protein; endogenous in cells; host or cells: human peripheral blood mononuclear cells (hPBMCs)
Procedure, shortened: as §1

GSPT1 = molecular target: T3, GSPT1 (Homo sapiens, UniProt P15170+Q96SW2); assay: Western blot degradation of GSPT1 in hPBMCs (24 h)
T3 construct: The supernatant was aspirated as the extracted total cell protein; endogenous in cells; host or cells: human peripheral blood mononuclear cells (hPBMCs)
Procedure, shortened: as §1

IKZF3 = molecular target: T4, IKZF3 (Homo sapiens, UniProt Q96SW2+Q9UKT9); assay: Western blot degradation of IKZF3 in hPBMCs (24 h)
T4 construct: The supernatant was aspirated as the extracted total cell protein; endogenous in cells; host or cells: human peripheral blood mononuclear cells (hPBMCs)
Procedure, shortened: as §1

IKZF1 = molecular target: T5, IKZF1 (Homo sapiens, UniProt Q13422+Q96SW2); assay: Western blot degradation of IKZF1 in hPBMCs (24 h)
T5 construct: The supernatant was aspirated as the extracted total cell protein; endogenous in cells; host or cells: human peripheral blood mononuclear cells (hPBMCs)
Procedure, shortened: as §1

WEE1 = molecular target: T6, WEE1 (Homo sapiens, UniProt P30291+Q96SW2); assay: Western blot degradation of WEE1 in hPBMCs (24 h)
T6 construct: The supernatant was aspirated as the extracted total cell protein; endogenous in cells; host or cells: human peripheral blood mononuclear cells (hPBMCs)
Procedure, shortened: as §1

T4 sequence (Q9UKT9 whole entry): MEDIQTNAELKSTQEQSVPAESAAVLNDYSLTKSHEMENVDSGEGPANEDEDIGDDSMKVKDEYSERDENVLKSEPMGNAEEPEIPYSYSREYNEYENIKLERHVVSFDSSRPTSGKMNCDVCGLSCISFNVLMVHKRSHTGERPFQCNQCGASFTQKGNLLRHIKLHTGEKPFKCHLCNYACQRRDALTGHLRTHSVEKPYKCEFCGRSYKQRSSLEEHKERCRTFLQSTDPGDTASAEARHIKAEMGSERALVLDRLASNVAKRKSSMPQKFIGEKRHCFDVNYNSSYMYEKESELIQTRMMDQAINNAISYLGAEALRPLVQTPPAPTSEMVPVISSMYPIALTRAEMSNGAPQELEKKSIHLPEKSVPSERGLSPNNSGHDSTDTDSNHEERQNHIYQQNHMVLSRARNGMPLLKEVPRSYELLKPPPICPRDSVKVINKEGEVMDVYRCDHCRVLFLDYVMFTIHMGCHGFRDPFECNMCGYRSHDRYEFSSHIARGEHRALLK
T4 sequence (Q96SW2 whole entry): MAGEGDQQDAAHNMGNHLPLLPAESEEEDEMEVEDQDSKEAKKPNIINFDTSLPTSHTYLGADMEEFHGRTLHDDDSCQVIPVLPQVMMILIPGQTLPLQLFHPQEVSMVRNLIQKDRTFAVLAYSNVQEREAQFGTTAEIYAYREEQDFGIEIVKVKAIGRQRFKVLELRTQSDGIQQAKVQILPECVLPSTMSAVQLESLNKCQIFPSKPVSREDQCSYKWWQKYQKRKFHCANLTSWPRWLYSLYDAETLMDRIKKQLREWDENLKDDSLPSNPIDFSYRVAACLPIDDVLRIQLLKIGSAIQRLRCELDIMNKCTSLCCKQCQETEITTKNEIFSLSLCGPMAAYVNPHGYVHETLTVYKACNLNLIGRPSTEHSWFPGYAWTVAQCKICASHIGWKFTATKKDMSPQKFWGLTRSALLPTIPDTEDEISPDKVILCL
T4 sequence (Q16531 whole entry partner): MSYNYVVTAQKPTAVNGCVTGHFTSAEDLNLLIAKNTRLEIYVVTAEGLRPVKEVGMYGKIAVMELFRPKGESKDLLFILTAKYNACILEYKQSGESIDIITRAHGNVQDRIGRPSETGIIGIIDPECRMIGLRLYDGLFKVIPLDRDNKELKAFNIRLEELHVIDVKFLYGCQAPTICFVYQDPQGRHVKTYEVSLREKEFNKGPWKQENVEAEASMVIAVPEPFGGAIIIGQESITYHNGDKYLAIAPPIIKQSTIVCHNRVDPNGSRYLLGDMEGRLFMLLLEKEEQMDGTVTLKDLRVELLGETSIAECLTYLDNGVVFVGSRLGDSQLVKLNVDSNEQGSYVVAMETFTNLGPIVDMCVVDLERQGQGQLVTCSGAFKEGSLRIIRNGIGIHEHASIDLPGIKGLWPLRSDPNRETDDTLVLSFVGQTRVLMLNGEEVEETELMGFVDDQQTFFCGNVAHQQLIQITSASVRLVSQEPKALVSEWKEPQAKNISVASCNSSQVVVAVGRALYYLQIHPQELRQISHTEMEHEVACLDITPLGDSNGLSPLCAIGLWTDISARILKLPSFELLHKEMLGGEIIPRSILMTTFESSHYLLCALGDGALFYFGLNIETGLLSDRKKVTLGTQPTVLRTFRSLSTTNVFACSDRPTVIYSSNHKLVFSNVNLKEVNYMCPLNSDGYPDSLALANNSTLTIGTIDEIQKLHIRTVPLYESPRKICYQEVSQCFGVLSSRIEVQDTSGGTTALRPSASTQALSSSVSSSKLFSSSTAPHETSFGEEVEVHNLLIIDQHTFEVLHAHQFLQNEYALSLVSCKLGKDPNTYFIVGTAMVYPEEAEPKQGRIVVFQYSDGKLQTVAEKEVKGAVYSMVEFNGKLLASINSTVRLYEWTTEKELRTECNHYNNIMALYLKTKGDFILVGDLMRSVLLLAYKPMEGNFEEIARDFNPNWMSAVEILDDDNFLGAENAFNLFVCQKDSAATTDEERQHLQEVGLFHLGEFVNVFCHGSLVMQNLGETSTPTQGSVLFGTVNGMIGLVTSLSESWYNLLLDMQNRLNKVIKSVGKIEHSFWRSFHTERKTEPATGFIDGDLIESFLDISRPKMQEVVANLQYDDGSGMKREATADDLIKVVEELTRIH
T3 sequence (P15170 whole entry): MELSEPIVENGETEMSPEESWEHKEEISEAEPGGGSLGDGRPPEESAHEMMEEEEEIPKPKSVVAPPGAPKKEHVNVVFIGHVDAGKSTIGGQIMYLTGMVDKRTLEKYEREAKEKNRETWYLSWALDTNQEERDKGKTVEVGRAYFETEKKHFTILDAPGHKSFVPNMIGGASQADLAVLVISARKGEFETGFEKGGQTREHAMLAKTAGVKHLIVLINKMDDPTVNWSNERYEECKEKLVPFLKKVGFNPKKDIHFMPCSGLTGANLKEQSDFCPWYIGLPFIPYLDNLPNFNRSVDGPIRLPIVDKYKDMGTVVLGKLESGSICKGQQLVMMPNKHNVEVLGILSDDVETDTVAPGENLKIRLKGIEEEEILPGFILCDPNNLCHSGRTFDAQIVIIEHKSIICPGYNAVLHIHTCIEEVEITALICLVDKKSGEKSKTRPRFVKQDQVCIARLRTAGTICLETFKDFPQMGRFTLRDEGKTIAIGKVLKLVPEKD
T3 sequence (Q96SW2 whole entry): as the sequence (Q96SW2 whole entry) above
T3 sequence (Q16531 whole entry partner): as the sequence (Q16531 whole entry partner) above
T6 sequence (P30291 whole entry): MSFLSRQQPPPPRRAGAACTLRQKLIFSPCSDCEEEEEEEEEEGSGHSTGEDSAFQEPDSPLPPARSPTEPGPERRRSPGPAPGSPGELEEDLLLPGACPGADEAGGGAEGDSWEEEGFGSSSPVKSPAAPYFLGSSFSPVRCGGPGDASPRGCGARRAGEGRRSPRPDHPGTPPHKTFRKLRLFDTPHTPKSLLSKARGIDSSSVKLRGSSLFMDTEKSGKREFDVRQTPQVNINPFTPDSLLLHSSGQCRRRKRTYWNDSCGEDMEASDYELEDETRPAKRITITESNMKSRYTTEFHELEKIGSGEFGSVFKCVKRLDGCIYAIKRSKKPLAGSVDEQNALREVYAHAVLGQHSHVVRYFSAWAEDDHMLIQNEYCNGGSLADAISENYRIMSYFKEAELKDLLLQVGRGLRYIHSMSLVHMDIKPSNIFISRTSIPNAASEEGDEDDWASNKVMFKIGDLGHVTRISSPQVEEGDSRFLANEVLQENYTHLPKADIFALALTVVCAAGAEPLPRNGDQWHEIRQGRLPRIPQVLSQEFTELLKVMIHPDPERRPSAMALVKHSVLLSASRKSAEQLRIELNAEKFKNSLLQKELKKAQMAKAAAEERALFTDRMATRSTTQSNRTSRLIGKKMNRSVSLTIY
T6 sequence (Q96SW2 whole entry): as the sequence (Q96SW2 whole entry) above
T6 sequence (Q16531 whole entry partner): as the sequence (Q16531 whole entry partner) above
T1 sequence (P48729 whole entry): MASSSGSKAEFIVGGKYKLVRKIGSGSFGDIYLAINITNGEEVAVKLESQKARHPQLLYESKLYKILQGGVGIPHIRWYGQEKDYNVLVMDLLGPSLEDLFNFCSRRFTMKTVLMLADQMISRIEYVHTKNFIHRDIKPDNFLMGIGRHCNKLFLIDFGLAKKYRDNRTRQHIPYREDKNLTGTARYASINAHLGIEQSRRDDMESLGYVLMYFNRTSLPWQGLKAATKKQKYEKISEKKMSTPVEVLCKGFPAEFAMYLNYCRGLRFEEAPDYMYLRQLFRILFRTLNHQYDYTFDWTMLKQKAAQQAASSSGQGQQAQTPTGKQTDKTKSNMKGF
T1 sequence (Q96SW2 whole entry): as the sequence (Q96SW2 whole entry) above
T1 sequence (Q16531 whole entry partner): as the sequence (Q16531 whole entry partner) above
T2 sequence (Q9UKS7 whole entry): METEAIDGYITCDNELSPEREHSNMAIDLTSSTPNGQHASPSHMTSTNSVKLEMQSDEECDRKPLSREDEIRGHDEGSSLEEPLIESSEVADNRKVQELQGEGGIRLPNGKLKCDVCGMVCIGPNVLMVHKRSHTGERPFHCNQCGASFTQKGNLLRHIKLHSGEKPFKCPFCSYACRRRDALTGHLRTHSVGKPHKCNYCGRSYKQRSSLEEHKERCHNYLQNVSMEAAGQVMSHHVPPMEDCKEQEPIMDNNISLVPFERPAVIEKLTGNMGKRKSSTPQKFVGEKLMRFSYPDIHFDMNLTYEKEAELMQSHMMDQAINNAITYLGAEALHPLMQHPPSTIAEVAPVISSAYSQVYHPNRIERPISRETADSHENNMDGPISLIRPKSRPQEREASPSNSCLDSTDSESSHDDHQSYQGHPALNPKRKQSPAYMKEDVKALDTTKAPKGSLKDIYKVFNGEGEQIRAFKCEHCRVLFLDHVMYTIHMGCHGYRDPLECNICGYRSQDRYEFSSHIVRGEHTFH
T2 sequence (Q96SW2 whole entry): as the sequence (Q96SW2 whole entry) above
T2 sequence (Q16531 whole entry partner): as the sequence (Q16531 whole entry partner) above

## O=C1CCN(N2Cc3cc(CN4CCC(n5c(=O)[nH]c6cc(F)ccc65)CC4)ccc3C2=O)C(=O)N1 [GT-07579, 1-(5-((4-(5-fluoro-2-oxo-2,3-dihydro-1H-benzo[d]imidazol-1-yl)piperidin-1-yl)methyl)-1-oxoisoindolin-2-yl)dihydropyrimidine-2,4(1H,3H)-dione]
CK1α
  CK1α substrate protein remaining %: B (80%< substrate protein remaining % ≤100%)
IKZF2
  IKZF2 substrate protein remaining %: A (0% ≤ substrate protein remaining % ≤80%)
GSPT1
  GSPT1 substrate protein remaining %: A (0% ≤ substrate protein remaining % ≤80%)
IKZF3
  IKZF3 substrate protein remaining %: B (80%< substrate protein remaining % ≤100%)
IKZF1
  IKZF1 substrate protein remaining %: A (0% ≤ substrate protein remaining % ≤80%)
WEE1
  WEE1 substrate protein remaining %: A (0% ≤ substrate protein remaining % ≤80%)

## O=C1CCN(N2C(=O)c3ccc(CN4CC=C(c5c[nH]c6cc(F)ccc56)CC4)cc3C2=O)C(=O)N1 [GT-07580, 2-(2,4-dioxotetrahydropyrimidin-1(2H)-yl)-5-((4-(6-fluoro-1H-indol-3-yl)-3,6-dihydropyridin-1(2H)-yl)methyl)isoindoline-1,3-dione]
CK1α
  CK1α substrate protein remaining %: B (80%< substrate protein remaining % ≤100%)
IKZF2
  IKZF2 substrate protein remaining %: A (0% ≤ substrate protein remaining % ≤80%)
GSPT1
  GSPT1 substrate protein remaining %: A (0% ≤ substrate protein remaining % ≤80%)
IKZF3
  IKZF3 substrate protein remaining %: A (0% ≤ substrate protein remaining % ≤80%)
IKZF1
  IKZF1 substrate protein remaining %: A (0% ≤ substrate protein remaining % ≤80%)
WEE1
  WEE1 substrate protein remaining %: A (0% ≤ substrate protein remaining % ≤80%)

## Cn1cc(C2CCN(Cc3ccc4c(c3)C(=O)N(N3CCC(=O)NC3=O)C4=O)CC2)c2ccc(F)cc21 [GT-07581, 2-(2,4-dioxotetrahydropyrimidin-1(2H)-yl)-5-((4-(6-fluoro-1-methyl-1H-indol-3-yl)piperidin-1-yl)methyl)isoindoline-1,3-dione]
CK1α
  CK1α substrate protein remaining %: B (80%< substrate protein remaining % ≤100%)
IKZF2
  IKZF2 substrate protein remaining %: A (0% ≤ substrate protein remaining % ≤80%)
GSPT1
  GSPT1 substrate protein remaining %: A (0% ≤ substrate protein remaining % ≤80%)
IKZF3
  IKZF3 substrate protein remaining %: B (80%< substrate protein remaining % ≤100%)
IKZF1
  IKZF1 substrate protein remaining %: A (0% ≤ substrate protein remaining % ≤80%)
WEE1
  WEE1 substrate protein remaining %: A (0% ≤ substrate protein remaining % ≤80%)

## O=C1CCN(N2C(=O)c3ccc(CN4CCC(c5c[nH]c6ncccc56)CC4)cc3C2=O)C(=O)N1 [GT-07582, 5-((4-(1H-pyrrolo[2,3-b]pyridin-3-yl)piperidin-1-yl)methyl)-2-(2,4-dioxotetrahydropyrimidin-1(2H)-yl)isoindoline-1,3-dione]
CK1α
  CK1α substrate protein remaining %: B (80%< substrate protein remaining % ≤100%)
IKZF2
  IKZF2 substrate protein remaining %: A (0% ≤ substrate protein remaining % ≤80%)
GSPT1
  GSPT1 substrate protein remaining %: A (0% ≤ substrate protein remaining % ≤80%)
IKZF3
  IKZF3 substrate protein remaining %: B (80%< substrate protein remaining % ≤100%)
IKZF1
  IKZF1 substrate protein remaining %: A (0% ≤ substrate protein remaining % ≤80%)
WEE1
  WEE1 substrate protein remaining %: A (0% ≤ substrate protein remaining % ≤80%)

## O=C1CCN(N2C(=O)c3ccc(CN4CCC(n5c(=O)[nH]c6cc(F)ccc65)CC4)cc3C2=O)C(=O)N1 [GT-07583, 2-(2,4-dioxotetrahydropyrimidin-1(2H)-yl)-5-((4-(5-fluoro-2-oxo-2,3-dihydro-1H-benzo[d]imidazol-1-yl)piperidin-1-yl)methyl)isoindoline-1,3-dione]
CK1α
  CK1α substrate protein remaining %: B (80%< substrate protein remaining % ≤100%)
IKZF2
  IKZF2 substrate protein remaining %: B (80%< substrate protein remaining % ≤100%)
GSPT1
  GSPT1 substrate protein remaining %: A (0% ≤ substrate protein remaining % ≤80%)
IKZF3
  IKZF3 substrate protein remaining %: B (80%< substrate protein remaining % ≤100%)
IKZF1
  IKZF1 substrate protein remaining %: B (80%< substrate protein remaining % ≤100%)
WEE1
  WEE1 substrate protein remaining %: A (0% ≤ substrate protein remaining % ≤80%)

## O=C1CCN(N2Cc3cc(CN4CCC(N5CCCc6cc(F)ccc65)CC4)ccc3C2=O)C(=O)N1 [GT-07584, 1-(5-((4-(6-fluoro-3,4-dihydroquinolin-1(2H)-yl)piperidin-1-yl)methyl)-1-oxoisoindolin-2-yl)dihydropyrimidine-2,4(1H,3H)-dione]
CK1α
  CK1α substrate protein remaining %: B (80%< substrate protein remaining % ≤100%)
IKZF2
  IKZF2 substrate protein remaining %: B (80%< substrate protein remaining % ≤100%)
GSPT1
  GSPT1 substrate protein remaining %: A (0% ≤ substrate protein remaining % ≤80%)
IKZF3
  IKZF3 substrate protein remaining %: B (80%< substrate protein remaining % ≤100%)
IKZF1
  IKZF1 substrate protein remaining %: A (0% ≤ substrate protein remaining % ≤80%)
WEE1
  WEE1 substrate protein remaining %: A (0% ≤ substrate protein remaining % ≤80%)

## O=C1CCN(N2Cc3cc(CN4CCC(N5CCOc6cc(F)ccc65)CC4)ccc3C2=O)C(=O)N1 [GT-07585, 1-(5-((4-(7-fluoro-2,3-dihydro-4H-benzo[b][1,4]oxazin-4-yl)piperidin-1-yl)methyl)-1-oxoisoindolin-2-yl)dihydropyrimidine-2,4(1H,3H)-dione]
CK1α
  CK1α substrate protein remaining %: B (80%< substrate protein remaining % ≤100%)
IKZF2
  IKZF2 substrate protein remaining %: B (80%< substrate protein remaining % ≤100%)
GSPT1
  GSPT1 substrate protein remaining %: A (0% ≤ substrate protein remaining % ≤80%)
IKZF3
  IKZF3 substrate protein remaining %: B (80%< substrate protein remaining % ≤100%)
IKZF1
  IKZF1 substrate protein remaining %: A (0% ≤ substrate protein remaining % ≤80%)
WEE1
  WEE1 substrate protein remaining %: A (0% ≤ substrate protein remaining % ≤80%)

## O=C1CCN(N2Cc3cc(CN4CCC(N5C(=O)COc6cc(F)ccc65)CC4)ccc3C2=O)C(=O)N1 [GT-07586, 1-(5-((4-(7-fluoro-3-oxo-2,3-dihydro-4H-benzo[b][1,4]oxazin-4-yl)piperidin-1-yl)methyl)-1-oxoisoindolin-2-yl)dihydropyrimidine-2,4(1H,3H)-dione]
CK1α
  CK1α substrate protein remaining %: B (80%< substrate protein remaining % ≤100%)
IKZF2
  IKZF2 substrate protein remaining %: B (80%< substrate protein remaining % ≤100%)
GSPT1
  GSPT1 substrate protein remaining %: A (0% ≤ substrate protein remaining % ≤80%)
IKZF3
  IKZF3 substrate protein remaining %: B (80%< substrate protein remaining % ≤100%)
IKZF1
  IKZF1 substrate protein remaining %: A (0% ≤ substrate protein remaining % ≤80%)
WEE1
  WEE1 substrate protein remaining %: A (0% ≤ substrate protein remaining % ≤80%)

## O=C1CCN(N2Cc3cc(CN4CCC(C5CCOc6cc(F)ccc65)CC4)ccc3C2=O)C(=O)N1 (stereo not drawn) [GT-07587, 1-(5-((4-(7-fluorochroman-4-yl)piperidin-1-yl)methyl)-1-oxoisoindolin-2-yl)dihydropyrimidine-2,4(1H,3H)-dione]
CK1α
  CK1α substrate protein remaining %: B (80%< substrate protein remaining % ≤100%)
IKZF2
  IKZF2 substrate protein remaining %: B (80%< substrate protein remaining % ≤100%)
GSPT1
  GSPT1 substrate protein remaining %: A (0% ≤ substrate protein remaining % ≤80%)
IKZF3
  IKZF3 substrate protein remaining %: B (80%< substrate protein remaining % ≤100%)
IKZF1
  IKZF1 substrate protein remaining %: A (0% ≤ substrate protein remaining % ≤80%)
WEE1
  WEE1 substrate protein remaining %: A (0% ≤ substrate protein remaining % ≤80%)

## O=C1CCN(N2Cc3cc(CN4CCC(=C5CCOc6cc(F)ccc65)CC4)ccc3C2=O)C(=O)N1 [GT-07588, 1-(5-((4-(7-fluorochroman-4-ylidene)piperidin-1-yl)methyl)-1-oxoisoindolin-2-yl)dihydropyrimidine-2,4(1H,3H)-dione]
CK1α
  CK1α substrate protein remaining %: B (80%< substrate protein remaining % ≤100%)
IKZF2
  IKZF2 substrate protein remaining %: B (80%< substrate protein remaining % ≤100%)
GSPT1
  GSPT1 substrate protein remaining %: A (0% ≤ substrate protein remaining % ≤80%)
IKZF3
  IKZF3 substrate protein remaining %: B (80%< substrate protein remaining % ≤100%)
IKZF1
  IKZF1 substrate protein remaining %: B (80%< substrate protein remaining % ≤100%)
WEE1
  WEE1 substrate protein remaining %: B (80%< substrate protein remaining % ≤100%)

## O=C1CCN(N2Cc3cc(CN4CCC(c5cccc6c(F)cccc56)CC4)ccc3C2=O)C(=O)N1 [GT-07589, 1-(5-((4-(5-fluoronaphthalen-1-yl)piperidin-1-yl)methyl)-1-oxoisoindolin-2-yl)dihydropyrimidine-2,4(1H,3H)-dione]
CK1α
  CK1α substrate protein remaining %: B (80%< substrate protein remaining % ≤100%)
IKZF2
  IKZF2 substrate protein remaining %: B (80%< substrate protein remaining % ≤100%)
GSPT1
  GSPT1 substrate protein remaining %: A (0% ≤ substrate protein remaining % ≤80%)
IKZF3
  IKZF3 substrate protein remaining %: B (80%< substrate protein remaining % ≤100%)
IKZF1
  IKZF1 substrate protein remaining %: B (80%< substrate protein remaining % ≤100%)
WEE1
  WEE1 substrate protein remaining %: B (80%< substrate protein remaining % ≤100%)

## O=C1CCN(N2Cc3cc(CN4CCC(c5noc6ccccc56)CC4)ccc3C2=O)C(=O)N1 [GT-07642, 1-(5-((4-(benzo[d]isoxazol-3-yl)piperidin-1-yl)methyl)-1-oxoisoindolin-2-yl)dihydropyrimidine-2,4(1H,3H)-dione]
CK1α
  CK1α substrate protein remaining %: B (80%< substrate protein remaining % ≤100%)
IKZF2
  IKZF2 substrate protein remaining %: B (80%< substrate protein remaining % ≤100%)
GSPT1
  GSPT1 substrate protein remaining %: A (0% ≤ substrate protein remaining % ≤80%)
IKZF3
  IKZF3 substrate protein remaining %: B (80%< substrate protein remaining % ≤100%)
IKZF1
  IKZF1 substrate protein remaining %: B (80%< substrate protein remaining % ≤100%)
WEE1
  WEE1 substrate protein remaining %: B (80%< substrate protein remaining % ≤100%)
